Data set [1] in a line: Solubility of biocidal active substances in various solvents, by stepwise concentration of a 10 wt% starting solution at 25°C. It counts as physicochemical. The protocol: Die nachfolgenden Beispiele dienen der näheren Erläuterung der Erfindung. Alle Prozentangaben sind Gewichtsprozente, sofern nicht anders angegeben. Tabelle 1: Löslichkeiten von bioziden Wirksubstanzen in verschiedenen Lösemitteln
Die Löslichkeiten wurden durch schrittweises Aufkonzentrieren einer Startlösung bei 10 Gew.-% bei 25°C ermittelt. Tabelle 2: Lagerstabilität von bioziden Wirksubstanzen in verschiedenen Lösemitteln bei -5°C, +20°C und +50°C bei 14 Tagen Lagerdauer

For data set [2] the following is noted: in Tierversuchen; cited from earlier work.
Setting [3] is: solvent N-Methylpyrrolidon (NMP), weight percent.
[4] abbreviates: solvent Dipropylenglykol (DPG), weight percent.
Where [5] appears, read: solvent Tetraethylenglykoldimethylether (TEGDME), weight percent.
[6] abbreviates: solvent TEGDME / DPG 1:2,7, weight percent.

This is an account of results in patent EP1767091A2, “Biocidal compositions” (Clariant Produkte (Deutschland) GmbH, priority 2005, dated 2007).

As for `O=[N+]([O-])C(Br)(CO)CO` [1 (V), 2-Bromo-2-nitro-1,3-propandiol], the “Löslichkeit [25°C]” value in data set [1] (setting [3]) is 51%.

Regarding `O=[N+]([O-])C(Br)(CO)CO` [4(V), 2-Bromo-2-nitro-1,3-propandiol], the “Löslichkeit [25°C]” value in data set [1] (setting [4]) amounted to 26%.

`CCCCNC(=O)OCC#CI` [5(V), 3-Jod-2-propinyl-butylcarbamat]: the “Löslichkeit [25°C]” value in data set [1] (setting [3]) amounted to 45%.

`CCCCNC(=O)OCC#CI` [8(V), 3-Jod-2-propinyl-butylcarbamat]: the “Löslichkeit [25°C]” value in data set [1] (setting [4]) came out at 34%.

Regarding `N#CCCC(Br)(C#N)CBr` (stereo not shown) [13(V), 1,2-Dibromo-2,4-dicyanobutan], in data set [1] (setting [3]), the “Löslichkeit [25°C]” value came out at 39%.

Regarding `N#CCCC(Br)(C#N)CBr` (stereo not shown) [16(V), 1,2-Dibromo-2,4-dicyanobutan], in data set [1] (setting [4]), the “Löslichkeit [25°C]” value is 21%.

For the molecule `O=[N+]([O-])C(Br)(CO)CO` [Beispiel 2, 2-Bromo-2-nitro-1,3-propandiol], in data set [1] (setting [5]), the “Löslichkeit [25°C]” value is listed as 56%.

As to `O=[N+]([O-])C(Br)(CO)CO` [Beispiel 3, 2-Bromo-2-nitro-1,3-propandiol], in data set [1] (setting [6]), the “Löslichkeit [25°C]” value is listed as 39%.

On to `CCCCNC(=O)OCC#CI` [Beispiel 6, 3-Jod-2-propinyl-butylcarbamat], for which the “Löslichkeit [25°C]” value in data set [1] (setting [5]) is 52%.

`CCCCNC(=O)OCC#CI` [Beispiel 7, 3-Jod-2-propinyl-butylcarbamat]: the “Löslichkeit [25°C]” value in data set [1] (setting [6]) is listed as 50%.

As to `N#CCCC(Br)(C#N)CBr` (stereo not shown) [Beispiel 14, 1,2-Dibromo-2,4-dicyanobutan], in data set [1] (setting [5]), the “Löslichkeit [25°C]” value was 47%.

Turning to `N#CCCC(Br)(C#N)CBr` (stereo not shown) [Beispiel 15, 1,2-Dibromo-2,4-dicyanobutan], in data set [1] (setting [6]), the “Löslichkeit [25°C]” value stood at 34%.

For `CN1CCCC1=O` [N-Methyl-2-Pyrrolidon], in data set [2], the “fruchtschädigende Wirkung” value was “fruchtschädigende Wirkung”.
